# Assay results from patent US4213999A, “Inhibition of lipogenesis” (Shell Oil Company, priority 1979, dated 1980).
# Test system: lipogenesis in swine adipose tissue
# Assay: Inhibition of lipogenesis (lipid synthesis from glucose-U^14 C) in swine adipose tissue slices
# Type: cell-based
# Settings: Sus scrofa, 100 micrograms per milliliter of incubation mixture, 37° C., 2 hours, 300 microunits of insulin, 5% DMSO, triplicate, read-out: Percent Inhibition of lipogenesis (lipid synthesis) compared to control tests
# Source text: The manner in which they cause this effect is not known with certainty; it is believed that they interfere with the synthesis of fatty acids in the tissues. Their effectiveness for this purpose has been ascertained by immersing samples of swine adipose tissue in a liquid medium containing radioactive glucose and the test chemical for a period of time, then isolating the lipid from the treated tissue and determining the uptake of the radioactive carbon by means of scintillation counting techniques. These tests were conducted in swine adipose tissue because in swine, the primary site of lipogenesis--i.e., fatty acid synthesis--appears to be adipose tissue.
# Described in more detail, the tests were conducted according to the following general procedure:
# 150 milligrams of slices of swine adipose tissue were incubated at 37° C. for 2 hours with shaking in 3 milliliters of Krebs-Ringer bicarbonate solution containing one-half of the normal calcium ion concentration, 60 micromoles of glucose, 0.5 micro-Curie of glucose-U^14 C, and 300 microunits of insulin, and 5% dimethyl sulfoxide (DMSO). The test compound was added as a solution or suspension in DMSO and was present as a concentration of 100 micrograms per milliliter of incubation mixture.
# The incubation was terminated by addition of 0.25 milliliter of 1 N sulfuric acid. The resulting mixture was extracted with a total of 25 milliliters of chloroform:methanol (2:1, v/v). The extracts were washed according to Folch et al. (J. Biol. Chem., 226, 497-509, (1957)), air dried, and counted in a liquid scintillation counter with 15 milliliters of counting fluid (two parts toluene containing 0.4% w/v New England Nuclear Omnifluor: 1 part Triton X-100). The tests were conducted in triplicate and were accompanied by control tests in which all ingredients,proportions and conditions were the same except that no test compound was included. From the data obtained were calculated the percent inhibition of lipid synthesis by the test compound. The data obtained are reported as the percent inhibition of lipogenesis compared to the results obtained in the control tests wherein only the test compound was omitted.
row,Compound,inhibition at 100 µg/mL
1,"CCOC(=O)c1cc2cc(Cc3ccccc3)ccc2o1 [Compound 1, Ethyl 5-benzylbenzofuran-2-carboxylate]",45%
2,"CCOC(=O)c1cc2cc(-c3ccc(OC(C)=O)cc3)ccc2o1 [Compound 6, Ethyl 5-(4-acetyloxyphenyl)benzofuran-2-carboxylate]",56%
3,C=CCOC(=O)C1Cc2cc(Cc3ccccc3)ccc2O1 (stereo not drawn) [Compound 12],36%
4,"CCOC(=O)C1Cc2cc(-c3ccc(Cl)cc3)ccc2O1 (stereo not drawn) [Compound 18, Ethyl 2,3-dihydro-5-(4-chlorophenyl)benzofuran-2-carboxylate]",28%
5,CCOC(=O)C1Cc2cc(Cc3ccccc3)ccc2O1 (stereo not drawn) [Compound 11],40%
6,CCOC(=O)C1Cc2ccc(Oc3ccccc3)cc2O1 (stereo not drawn) [Compound 17],29%
7,"CCOC(=O)c1cc2cc(-c3ccc(N)cc3)ccc2o1 [Compound 9, Ethyl 5-(4-aminophenyl)benzofuran-2-carboxylate]",45%
8,CCOC(=O)c1cc2cc(C(=O)c3ccccc3)ccc2o1 [Compound 3],47%
9,"CCOC(=O)c1cc2cc(-c3ccc(C(C)O)cc3)ccc2o1 (stereo not drawn) [Compound 7, Ethyl 5-(4-(1-hydroxyethyl)phenyl)benzofuran-2-carboxylate]",71%
10,CCOC(=O)C1Cc2cc(C3CCCCC3)ccc2O1 (stereo not drawn) [Compound 16],21%
11,CCOC(=O)C1Cc2cc(-c3ccc(NC(C)=O)cc3)ccc2O1 (stereo not drawn) [Compound 15],88%
12,CCOC(=O)C1Cc2c(Oc3ccccc3)cccc2O1 (stereo not drawn) [Compound 13],20%
13,"CCOC(=O)C1Cc2cc(-c3ccccc3)ccc2O1 (stereo not drawn) [Compound 10, Ethyl 2,3-dihydro-5-phenylbenzofuran-2-carboxylate]",21%
14,COC(=O)C1Cc2cc(-c3ccc(C(C)O)cc3)ccc2O1 (stereo not drawn) [Compound 14],85%
15,"CCOC(=O)c1cc2c(Oc3ccccc3)cccc2o1 [Compound 4, Ethyl 4-phenoxybenzofuran-2-carboxylate]",28%
16,CCCCCCOc1ccc2oc(C(=O)OCC)cc2c1 [Compound 2],23%
17,CCOC(=O)c1cc2cc(-c3ccc(NC(C)=O)cc3)ccc2o1 [Compound 8],52%
18,"CCOC(=O)c1cc2cc(-c3ccc(C(C)=O)cc3)ccc2o1 [Compound 5, Ethyl 5-(4-acetylphenyl)benzofuran-2-carboxylate]",24%
